Reference: patent US20250236608A1, “EGFR INHIBITORS” (Blueprint Medicines Corporation, priority 2022, published 2025)

Tests used:
[1] = biological target: EGFR (d746-750) (Homo sapiens (Human), UniProt P00533, DEL746-750); assay: Biochemical EGFR inhibition assay, EGFR (d746-750); details: Caliper mobility shift; 1.0 mM ATP or ATP Km; read-out: Enz EGFR_Exon19-del746-750 IC50
[2] = biological target: EGFR L858R (Homo sapiens (Human), UniProt P00533, L858R); assay: Biochemical EGFR inhibition assay, EGFR L858R; details: Caliper mobility shift; 1.0 mM ATP or ATP Km; read-out: Enz EGFR_L858R IC50
[3] = biological target: pEGFR (Tyr1068) in PC-9 cells (Ex19Del) (Homo sapiens (Human), UniProt P00533, DEL746-750); assay: PC-9 pEGFR AlphaLISA assay; type: cell-based; details: 4 hours incubation, p-EGFR (Tyr1068) AlphaLISA, read-out: Ext pEGFR_PC-9 Ex19Del IC50
Summary of the method: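 Cells seeded in phenol-free DMEM with 10% FBS adhered overnight at 37° C./5% CO2, then were exposed for 4 hours to a 4-fold, 10-point compound dilution series. After lysis, phospho-EGFR was read by AlphaLISA SureFire Ultra, and IC50 was fitted from percent inhibition versus log concentration.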

Chain of EGFR (d746-750) (P00533 other isoform, or with tags, fused parts or gaps del 1-694/del 746-750 limits assumed): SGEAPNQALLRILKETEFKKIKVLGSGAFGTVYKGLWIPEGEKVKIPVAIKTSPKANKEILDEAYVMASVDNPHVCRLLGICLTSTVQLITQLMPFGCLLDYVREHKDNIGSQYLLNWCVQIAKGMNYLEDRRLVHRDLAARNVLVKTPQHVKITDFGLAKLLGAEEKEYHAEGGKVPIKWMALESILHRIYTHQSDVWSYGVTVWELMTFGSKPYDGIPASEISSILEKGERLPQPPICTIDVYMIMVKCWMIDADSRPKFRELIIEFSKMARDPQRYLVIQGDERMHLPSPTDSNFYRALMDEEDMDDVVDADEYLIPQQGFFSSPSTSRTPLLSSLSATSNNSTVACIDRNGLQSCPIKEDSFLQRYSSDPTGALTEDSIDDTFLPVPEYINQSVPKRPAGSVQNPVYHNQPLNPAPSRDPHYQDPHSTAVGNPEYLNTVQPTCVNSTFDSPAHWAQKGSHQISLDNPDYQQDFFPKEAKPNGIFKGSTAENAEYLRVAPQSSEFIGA
Chain of EGFR L858R (P00533 25-1210 L858R): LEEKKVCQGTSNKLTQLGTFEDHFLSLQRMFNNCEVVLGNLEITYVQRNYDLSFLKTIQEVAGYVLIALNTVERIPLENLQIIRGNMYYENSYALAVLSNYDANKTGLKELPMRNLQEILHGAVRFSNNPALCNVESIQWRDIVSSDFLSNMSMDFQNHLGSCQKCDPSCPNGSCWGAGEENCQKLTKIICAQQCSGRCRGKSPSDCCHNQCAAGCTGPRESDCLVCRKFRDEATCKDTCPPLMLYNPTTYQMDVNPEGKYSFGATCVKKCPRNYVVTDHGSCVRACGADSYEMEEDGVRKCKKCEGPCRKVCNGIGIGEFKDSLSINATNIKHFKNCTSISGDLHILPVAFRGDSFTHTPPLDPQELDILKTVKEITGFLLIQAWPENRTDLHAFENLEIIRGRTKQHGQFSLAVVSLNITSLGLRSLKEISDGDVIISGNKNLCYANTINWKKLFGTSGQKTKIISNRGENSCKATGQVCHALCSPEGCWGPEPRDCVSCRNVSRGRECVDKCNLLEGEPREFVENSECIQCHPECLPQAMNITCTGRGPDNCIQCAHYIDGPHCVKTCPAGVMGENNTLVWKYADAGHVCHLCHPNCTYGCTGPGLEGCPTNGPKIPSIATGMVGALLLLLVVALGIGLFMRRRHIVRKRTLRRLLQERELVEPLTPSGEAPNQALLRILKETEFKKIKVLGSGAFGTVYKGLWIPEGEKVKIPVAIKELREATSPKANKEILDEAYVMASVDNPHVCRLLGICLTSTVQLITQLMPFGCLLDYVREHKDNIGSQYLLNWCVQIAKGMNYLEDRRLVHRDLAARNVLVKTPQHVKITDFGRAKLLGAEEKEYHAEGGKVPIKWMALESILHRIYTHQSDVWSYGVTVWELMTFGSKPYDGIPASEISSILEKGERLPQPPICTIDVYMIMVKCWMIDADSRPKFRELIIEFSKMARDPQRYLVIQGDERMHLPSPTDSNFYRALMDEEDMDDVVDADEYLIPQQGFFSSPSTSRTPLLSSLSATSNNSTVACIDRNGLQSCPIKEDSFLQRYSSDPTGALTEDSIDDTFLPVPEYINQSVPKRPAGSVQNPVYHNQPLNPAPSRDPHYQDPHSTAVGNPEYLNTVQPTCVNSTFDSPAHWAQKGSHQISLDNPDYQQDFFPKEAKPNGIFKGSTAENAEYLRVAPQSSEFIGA
Chain of pEGFR (Tyr1068) in PC-9 cells (Ex19Del) (P00533 other isoform, or with tags, fused parts or gaps del 746-750): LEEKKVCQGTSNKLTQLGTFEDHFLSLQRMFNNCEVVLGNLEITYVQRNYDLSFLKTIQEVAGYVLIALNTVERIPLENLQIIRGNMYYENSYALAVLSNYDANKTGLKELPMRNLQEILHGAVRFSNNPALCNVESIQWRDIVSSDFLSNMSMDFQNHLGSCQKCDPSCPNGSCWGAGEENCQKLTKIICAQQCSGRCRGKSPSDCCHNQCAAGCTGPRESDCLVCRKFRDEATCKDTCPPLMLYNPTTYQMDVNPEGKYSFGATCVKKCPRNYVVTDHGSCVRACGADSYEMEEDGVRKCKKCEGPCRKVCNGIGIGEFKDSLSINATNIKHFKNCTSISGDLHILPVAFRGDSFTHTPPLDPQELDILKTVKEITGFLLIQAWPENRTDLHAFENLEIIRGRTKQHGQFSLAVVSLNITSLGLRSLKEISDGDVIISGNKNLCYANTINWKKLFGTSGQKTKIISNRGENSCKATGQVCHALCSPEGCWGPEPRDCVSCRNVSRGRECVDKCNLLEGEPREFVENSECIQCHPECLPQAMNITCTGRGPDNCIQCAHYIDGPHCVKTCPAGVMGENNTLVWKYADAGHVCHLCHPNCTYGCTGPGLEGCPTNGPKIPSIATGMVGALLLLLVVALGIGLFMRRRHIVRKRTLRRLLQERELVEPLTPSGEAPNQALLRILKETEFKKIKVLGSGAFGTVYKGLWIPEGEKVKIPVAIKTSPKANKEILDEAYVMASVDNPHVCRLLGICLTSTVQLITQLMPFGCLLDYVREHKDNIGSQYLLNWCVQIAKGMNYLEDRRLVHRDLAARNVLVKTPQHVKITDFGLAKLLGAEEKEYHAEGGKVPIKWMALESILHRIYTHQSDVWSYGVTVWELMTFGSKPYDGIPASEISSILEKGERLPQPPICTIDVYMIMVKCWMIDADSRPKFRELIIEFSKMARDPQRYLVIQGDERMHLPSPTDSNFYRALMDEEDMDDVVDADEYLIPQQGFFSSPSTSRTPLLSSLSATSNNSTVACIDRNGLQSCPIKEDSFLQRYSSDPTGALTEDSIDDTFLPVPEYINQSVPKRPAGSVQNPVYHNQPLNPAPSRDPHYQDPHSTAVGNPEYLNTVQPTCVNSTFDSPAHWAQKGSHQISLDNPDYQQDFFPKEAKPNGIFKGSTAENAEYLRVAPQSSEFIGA

| SMILES | IC50 [1] [nM] | IC50 [2] [nM] | IC50 [3] [nM] |
| --- | --- | --- | --- |
| COc1cc2ncnc(-c3cn(C)nc3-c3ccccc3)c2cc1NC(=O)[C@@H]1CCN(C)C1 [Example 210, (R)-N-(7-methoxy-4-(1-methyl-3-phenyl-1H-pyrazol-4-yl)quinazolin-6-yl)-1-methylpyrrolidine-3-carboxamide] | 0.6 | 1.1 | 1.7 |
| COc1cc2ncnc(-c3cn(C)nc3-c3ccccc3)c2cc1-c1cccc2[nH]ncc12 [Example 143, 6-(1H-indazol-4-yl)-7-methoxy-4-(1-methyl-3-phenyl-1H-pyrazol-4-yl)quinazoline] | 1.7 | 4.5 | 3.2 |
| CCOc1cc2ncnc(-c3cn(C)nc3-c3ccccc3)c2cc1NC(=O)c1cnn(C(F)(F)F)c1 [Example 232, N-(7-ethoxy-4-(1-methyl-3-phenyl-1H-pyrazol-4-yl)quinazolin-6-yl)-1-(trifluoromethyl)-1H-pyrazole-4-carboxamide] | 1.5 | 2.7 | 4.1 |
| COc1cc2ncnc(-c3cn(C)nc3-c3ccccc3F)c2cc1N1CCOCC1 [Example 159, 4-(4-(3-(2-fluorophenyl)-1-methyl-1H-pyrazol-4-yl)-7-methoxyquinazolin-6-yl)morpholine] | 1.5 | 3 | 3.8 |
| COc1cc2ncnc(-c3cn(C)nc3-c3ccc(F)cc3)c2nc1NC(=O)C12CC(N(C)C)(C1)C2 [Example 402, 3-(dimethylamino)-N-(4-(3-(4-fluorophenyl)-1-methyl-1H-pyrazol-4-yl)-7-methoxypyrido[3,2-d]pyrimidin-6-yl)bicyclo[1.1.1]pentane-1-carboxamide] | 1.3 | 3.1 | 3.8 |
| COc1cc2ncnc(-c3cn(C)nc3-c3ccccc3)c2cc1OC(=O)N1CCOCC12CC2 [Example 65, 7-methoxy-4-(1-methyl-3-phenyl-1H-pyrazol-4-yl)quinazolin-6-yl 7-oxa-4-azaspiro[2.5]octane-4-carboxylate] | 2.5 | 6.1 | 2.5 |
| COc1cc2ncnc(-c3cn(C)nc3-c3ccccc3)c2nc1NC(=O)c1cnn(C(F)(F)F)c1 [Example 360, N-(7-methoxy-4-(1-methyl-3-phenyl-1H-pyrazol-4-yl)pyrido[3,2-d]pyrimidin-6-yl)-1-(trifluoromethyl)-1H-pyrazole-4-carboxamide] | 1 | 1.8 | 2.7 |
| COc1cc2ncnc(-c3cn(C)nc3-c3ccccc3)c2cc1NC(=O)[C@H]1CCN(C)C[C@@H]1F [Example 285, (3R,4R)-3-fluoro-N-(7-methoxy-4-(1-methyl-3-phenyl-1H-pyrazol-4-yl)quinazolin-6-yl)-1-methylpiperidine-4-carboxamide] | 0.8 | 1.3 | 0.5 |
| COc1cc2ncnc(-c3cn(C)nc3-c3ccccc3)c2cc1NC(=O)c1ccc(F)cc1 [Example 222, 4-fluoro-N-(7-methoxy-4-(1-methyl-3-phenyl-1H-pyrazol-4-yl)quinazolin-6-yl)benzamide] | 0.9 | 1.5 | 1.5 |
| CCOc1cc2ncnc(-c3cn(CC)nc3-c3ccccc3)c2cc1[C@H](C)O (single isomer, unassigned) [Example 107, (S)-1-(7-ethoxy-4-(1-ethyl-3-phenyl-1H-pyrazol-4-yl)quinazolin-6-yl)ethan-1-ol or (R)-1-(7-ethoxy-4-(1-ethyl-3-phenyl-1H-pyrazol-4-yl)quinazolin-6-yl)ethan-1-ol] | 0.6 | 1.3 | 3.3 |
| Cn1cc(-c2ncnc3cc(C(F)(F)F)c(NC(=O)C45COCC4C5)nc23)c(-c2ccccc2)n1 (stereo not drawn) [Example 488, N-(4-(1-methyl-3-phenyl-1H-pyrazol-4-yl)-7-(trifluoromethyl)pyrido[3,2-d]pyrimidin-6-yl)-3-oxabicyclo[3.1.0]hexane-1-carboxamide] | 126 | 416 | 981 |
| COc1cc2ncnc(-c3cn(C)nc3-c3ccccc3)c2nc1O[C@@H](C)c1cn(C)nn1 [Example 44, (S)-7-methoxy-6-(1-(1-methyl-1H-1,2,3-triazol-4-yl)ethoxy)-4-(1-methyl-3-phenyl-1H-pyrazol-4-yl)pyrido[3,2-d]pyrimidine] | 2.4 | 3.9 | 14.6 |
| CCc1cc2ncnc(-c3cn(C)nc3-c3ccccc3)c2nc1NC(=O)C12COCC1C2 (stereo not drawn) [Example 452, N-(7-ethyl-4-(1-methyl-3-phenyl-1H-pyrazol-4-yl)pyrido[3,2-d]pyrimidin-6-yl)-3-oxabicyclo[3.1.0]hexane-1-carboxamide] | 5.3 | 28.9 | 14.8 |
| CN1CCC(n2cc(-c3ccc4c(-c5cn(C)nc5-c5ccccc5)ncnc4c3)cn2)CC1 [Example 438, 4-(1-methyl-3-phenyl-1H-pyrazol-4-yl)-7-(1-(1-methylpiperidin-4-yl)-1H-pyrazol-4-yl)quinazoline] | 0.8 | 1.2 | 0.3 |
| COc1cc2ncnc(-c3cn(C)nc3-c3ccccc3)c2nc1NC(=O)[C@]1(C(F)(F)F)CCN(C)C1 (single isomer, unassigned) [Example 395, (S)—N-(7-methoxy-4-(1-methyl-3-phenyl-1H-pyrazol-4-yl)pyrido[3,2-d]pyrimidin-6-yl)-1-methyl-3-(trifluoromethyl) pyrrolidine-3-carboxamide or (R)—N-(7-methoxy-4-(1-methyl-3-phenyl-1H-pyrazol-4-yl)pyrido[3,2-d]pyrimidin-6-yl)-1-methyl-3-(trifluoromethyl) pyrrolidine-3-carboxamide] | 1.2 | 3.1 | 5.3 |
| COc1cc2ncnc(-c3cn(C)nc3-c3ccc(F)cc3)c2nc1NC(=O)[C@@]12CN(C)C[C@@H]1C2(F)F (single isomer, unassigned) [Example 426, (1S,5R)-6,6-difluoro-N-(4-(3-(4-fluorophenyl)-1-methyl-1H-pyrazol-4-yl)-7-methoxypyrido[3,2-d]pyrimidin-6-yl)-3-methyl-3-azabicyclo[3.1.0]hexane-1-carboxamide or (1R,5S)-6,6-difluoro-N-(4-(3-(4-fluorophenyl)-1-methyl-1H-pyrazol-4-yl)-7-methoxypyrido[3,2-d]pyrimidin-6-yl)-3-methyl-3-azabicyclo[3.1.0]hexane-1-carboxamide] | 1.1 | 2.8 | 1.3 |
| COc1cc2ncnc(-c3cn(CC(F)F)nc3-c3ccccc3)c2cc1NC(=O)[C@@]12COC[C@@H]1C2 [Example 276, (1R,5R)—N-(4-(1-(2,2-difluoroethyl)-3-phenyl-1H-pyrazol-4-yl)-7-methoxyquinazolin-6-yl)-3-oxabicyclo[3.1.0]hexane-1-carboxamide] | 1.6 | 2 | 1.3 |
| CCOc1cc2ncnc(-c3cn(C)nc3-c3ccc(F)cc3)c2nc1NC(=O)[C@]12C[C@H]1CN(C)C2 (single isomer, unassigned) [Example 376, (1R,5R)—N-(7-ethoxy-4-(3-(4-fluorophenyl)-1-methyl-1H-pyrazol-4-yl)pyrido[3,2-d]pyrimidin-6-yl)-3-methyl-3-azabicyclo[3.1.0]hexane-1-carboxamide or (1S,5S)—N-(7-ethoxy-4-(3-(4-fluorophenyl)-1-methyl-1H-pyrazol-4-yl)pyrido[3,2-d]pyrimidin-6-yl)-3-methyl-3-azabicyclo[3.1.0]hexane-1-carboxamide] | 0.4 | 1.3 | 2.7 |
| COc1cc2ncnc(-c3cn(C)nc3-c3ccccc3)c2cc1NC(=O)[C@@H](C)F (single isomer, unassigned) [Example 245, (R)-2-fluoro-N-(7-methoxy-4-(1-methyl-3-phenyl-1H-pyrazol-4-yl)quinazolin-6-yl) propenamide or (S)-2-fluoro-N-(7-methoxy-4-(1-methyl-3-phenyl-1H-pyrazol-4-yl)quinazolin-6-yl) propenamide] | 1 | 1.9 | 2.6 |
| COc1cc2ncnc(-c3cn(C)nc3-c3ccccc3)c2nc1O[C@H](C)c1nccs1 [Example 32, (R)-2-(1-((7-methoxy-4-(1-methyl-3-phenyl-1H-pyrazol-4-yl)pyrido[3,2-d]pyrimidin-6-yl)oxy)ethyl)thiazole] | 0.8 | 1.1 | 1.2 |
| COc1cc2ncnc(-c3cn(C)nc3-c3ccccc3)c2cc1NC(=O)c1cnccc1F [Example 326, 4-fluoro-N-(7-methoxy-4-(1-methyl-3-phenyl-1H-pyrazol-4-yl)quinazolin-6-yl) nicotinamide] | 0.8 | 1.2 | 1 |
| COc1cc2ncnc(-c3cn(C)nc3-c3ccccc3)c2cc1OC(=O)N1CCO[C@@H]2C[C@@H]21 (racemic) [Example 83, Cis-rac-7-methoxy-4-(1-methyl-3-phenyl-1H-pyrazol-4-yl)quinazolin-6-yl (1R,6S)-2-oxa-5-azabicyclo[4.1.0]heptane-5-carboxylate] | 2.2 | 3 | 4.9 |
| COc1cc2ncnc(-c3cn(CC(F)F)nc3-c3ccccc3)c2cc1NC(=O)[C@]12COC[C@H]1C2 [Example 275, (1S,5S)—N-(4-(1-(2,2-difluoroethyl)-3-phenyl-1H-pyrazol-4-yl)-7-methoxyquinazolin-6-yl)-3-oxabicyclo[3.1.0]hexane-1-carboxamide] | 1.3 | 1.9 | 1.9 |
